Experimental findings from patent US9433228B2, “Method for the production of multiple-unsaturated fatty acids in transgenic organisms” (BASF Plant Science GmbH, priority 2003, dated 2016) are described below.

For data set [1], the system named is ELO(Ci). As to the kind of experiment: ELO(Ci) expressed in yeast, conversion of starting materials. The note with it: fed at in each case 250 μM. The format is cell-based, Ciona intestinalis. As to the method:
(holding). […] Biochem. […] Thereafter, the FAMEs were analyzed via GLC.

Data set [2] concerns ELO(XI). As to the kind of experiment: ELO(XI) expressed in yeast, conversion of starting materials. It counts as cell-based, Xenopus laevis. The following applies: fed at in each case 250 μM. The procedure: Thereafter, the FAMEs were analyzed via GLC.
The test system of data set [3] is PtELO6 (Δ6-elongase). As to the kind of experiment: PtELO6 expressed in yeast, feeding experiment. The following applies: for conversion of fatty acid fed: fed to yeast with pYES2-PtELO6; for % Elongation: fatty acid added at 250 μm.
Procedure: The PCR products were incubated for 30 minutes at 21° C. with the yeast expression vector pYES2.1-TOPO (Invitrogen) following the manufacturer's instructions. The PCR product (see SEQ ID NO: 192) was ligated into the vector by means of a T-overhang and the activity of a topoisomerase (Invitrogen). After the incubation, E. coli DH5α cells were transformed. Suitable clones were identified by PCR, the plasmid DNA was isolated by means of the Qiagen DNAeasy kit and verified by sequencing. The correct sequence was then transformed into the Saccharomyces strain INVSc1 (Invitrogen) by electroporation (1500 V). As a control, the blank vector pYES2.1 was transformed in parallel. Thereafter, the yeasts were plated of minimal dropout uracil medium supplemented with 2% glucose. Cells which were capable of growing in the medium without uracil thus comprise the corresponding plasmids pYES2.1 and pYES2.1-PtELO6. After the selection, in each case two transformants were chosen for the further functional expression.
The yeast cells from the main cultures were harvested by centrifugation (100×g, 5 min, 20° C.) and washed with 100 mM NaHCO3, pH 8.0 to remove residual medium and fatty acids. Starting with the yeast cell sediments, fatty acid methyl esters (FAMEs) were prepared by acid methanolysis. To this end, the cell sediments were incubated for one hour at 80° C. together with 2 ml of 1 N methanolic sulfuric acid and 2% (v/v) of dimethoxypropane. The FAMEs were extracted twice with petroleum ether (PE). To remove nonderivatized fatty acids, the organic phases were washed in each case once with 2 ml of 100 mM NaHCO3, pH 8.0 and 2 ml of distilled water. Thereafter, the PE phases were dried with Na2SO4, evaporated under argon and taken up in 100 μl of PE. The samples were separated on a DB-23 capillary column (30 m, 0.25 mm, 0.25 μm, Agilent) in a Hewlett-Packard 6850 gas chromatograph equipped with flame ionization detector. The conditions for the GLC analysis were as follows: the oven temperature was programmed from 50° C. to 250° C. with a rate of 5° C./min and finally 10 min at 250° C. (holding).
The signals were identified by comparing the retention times with corresponding fatty acid standards (Sigma).
Feeding experiment: fatty acids (in bold) were added at in each case 250 μm.
The yeasts which had been transformed with the vector pYES2-PtELO6 were grown in minimal medium in the presence of the fatty acids stated. The fatty acid methyl esters were synthesized by subjecting intact cells to acid methanolysis. Thereafter, the FAMEs were analyzed via GLC.
The test system of data set [4] is Δ6-desaturase OtDes6.1, Δ6-elongase PSE1 and Δ5-desaturase PtD5. As to the kind of experiment: Reconstitution of ARA and EPA pathways in yeast: OtDes6.1 with PSE1 and PtD5. The format is cell-based, Saccharomyces cerevisiae. The following applies: for elongation by Δ6-elongase PSE1 to DHGLA and DHSTA: products of OtDes6.1 from LA and ALA (FIG. 21). From the text: The subsequent desaturation by the Δ5-desaturase PtD5 to give ARA and EPA, respectively, is also problem-free. Approximately 25-30% of the elongase product is desaturated (FIGS. 21 B and D).

Data set [5] deals with TpELO3 (Δ6-elongase). The format is cell-based, Thalassiosira pseudonana.
Data set [6] relates to TL16y2. As to the kind of experiment: TL16y2 expressed in yeast, feeding experiments. The format is cell-based, Thraustochytrium ssp. The note with it: in comparison with the control. The procedure:
The substrate specificity of BioTaurELO1 was determined after expression and feeding of various fatty acids (FIG. 6). […] After the fatty acids had been extracted from the yeasts, they were transmethylated and separated by gas chromatography. The elongation products obtained from the two fatty acids which had been fed are identified by arrows.
The functionality and substrate specificity of TL16y2 was determined after expression and feeding of various fatty acids. […] The feeding experiments were carried-out in the same manner as described for BioTaurELO1. The substrates fed can be detected in large amounts in all transgenic yeasts. […] This means that functional expression of the gene TL16y2 has been possible.

In data set [7] the test system is OtElo2.1 (Δ6-elongase). The format is cell-based, Ostreococcus tauri.
Data set [8] concerns OtElo2 (Δ6-elongase). It counts as cell-based, Ostreococcus tauri.
Data set [9] has as its system OmElo3, EgD4 and P. tricornutum Δ5-desaturase (PtD5). As to the kind of experiment: Reconstitution of DHA synthesis in yeast: coexpression of OmElo3, EgD4 and PtD5. It counts as cell-based, Saccharomyces cerevisiae. The following applies: fed 18:4 ω3. The procedure:
The reconstitution of the biosynthesis of DHA (22:6 ω3) was carried out starting from EPA (20:5 ω3) or stearidonic acid (18:4 ω3) by coexpressing OmElo3 together with the Euglena gracilis Δ4-desaturase or the Phaeodactylum tricomutum Δ5-desaturase and the Euglena gracilis Δ4-desaturase. To this end, the expression vectors pYes2-EgD4 and pESCLeu-PtD5 were additionally constructed. The abovementioned yeast strain which is already transformed with pYes3-OtElo3 (SEQ ID NO: 55), was transformed further with pYes2-EgD4, or simultaneously with pYes2-EgD4 and pESCLeu-PtD5. […] The cultures were incubated for a further 120 hours at 15° C.
In a further coexpression experiment, OmElo3, EgD4 and a P. tricornutum Δ5-desaturase (PtD5) were expressed together. The transgenic yeasts were fed stearidonic acid (18:4 ω3) and they were analyzed (FIG. 4). The fatty acid fed, 18:4 ω3, was elongated by OmElo3 to give 20:4 ω3 (60% elongation). The latter was desaturated by PtD5 to give 20:5 ω3. The PtD5 activity was 15%. Moreover, it was possible to elongate 20:5 ω3 by OmElo3 to give 22:5 ω3. Thereafter, the newly synthesized 22:5 ω3 was desaturated to 22:6 ω3 (DHA). Up to 0.7% of DHA was obtained in these experiments.

Data set [10] relates to OtElo1.2 (Δ5-elongase). It counts as cell-based, Ostreococcus tauri. The note with it: Table 15; yeast with pOTE1.2.
Data set [11] relates to TpELO1 (Δ5-elongase). Nature of the data set: TpELO1 expressed in yeast, feeding experiments. The note with it: 250 μM fatty acid fed.
Procedure: The PCR products were incubated for 30 minutes at −21° C. with the yeast expression vector pYES2.1-TOPO (Invitrogen) following the manufacturer's instructions. The PCR product was ligated into the vector by means of a T-overhang and the activity of a topoisomerase (Invitrogen). After the incubation, E. coli DH5α cells were transformed. Suitable clones were identified by PCR, the plasmid DNA was isolated by means of the Qiagen DNAeasy kit and verified by sequencing. The correct sequence was then transformed into the Saccharomyces strain INVSc1 (Invitrogen) by electroporation (1500 V). As a control, the blank vector pYES2.1 was transformed in parallel. Thereafter, the yeasts were plated out on minimal dropout uracil medium supplemented with 2% glucose. Cells which were capable of growing in the medium without uracil thus comprise the corresponding plasmids pYES2.1, pYES2.1-TpELO1, pYES2.1-ELO2 and pYES2.1-TpELO3. After the selection, in each case two transformants were chosen for the further functional expression.
The yeast cells from the main cultures were harvested by centrifugation (100×g, 5 min, 20° C.) and washed with 100 mM NaHCO3, pH 8.0 to remove residual medium and fatty acids. […]
The yeasts which had been transformed with the vector pYES2-TpELO1 were grown in minimal medium in the presence of the fatty acids stated. […] Thereafter the FAMEs were analyzed by GLC.
For data set [12], the system named is OtElo1 (Δ5-elongase). It counts as cell-based, Ostreococcus tauri. The following applies: Table 15; yeast with pOTE1.
Data set [13] has as its system OmElo3. As to the kind of experiment: OmElo3 expressed in yeast, feeding of fatty acids, GC of FAMEs. The format is cell-based, Oncorhynchus mykiss. The note with it: yeast with pYes3-OmElo3 and blank vector pYes2, fed 20:5 ω3.
Data set [14] has as its system At3g06460. Nature of the data set: At3g06460 expressed in yeast, elongation of EPA. The following applies: feeding with 250 uM EPA.
Source text: (§1) To characterize the function of the A. thaliana desaturases, the open reading frame of the DNA in question is cloned downstream of the galactose-inducible GALL promoter of pYES2.1/V5-His-TOPO (Invitrogen), giving rise to the corresponding pAt60 and pAt70 clones.
(§2) The Saccharomyces cerevisiae strain 334 is transformed with the vectors pAt60 and pAt70, respectively by electroporation (1500 V). A yeast which is transformed with the blank vector pYES2.1 is used for control purposes. The transformed yeasts are selected on complete minimal medium (CMdum) agar plates supplemented with 2% glucose, but lacking uracil. After the selection, in each case three transformants are chosen for the further functional expression.
(§3) To express the At elongases, precultures of in each case 5 ml of CMdum liquid medium supplemented with 2% (w/v) raffinose, but without uracil, were inoculated with the selected transformants and incubated for 2 hours at 30° C., 200 rpm.
(§4) 5 ml of CMdum liquid medium (without uracil) supplemented with 2% of raffinose and 300 μM various fatty acids were then inoculated with the precultures to an OD600 of 0.05. Expression was induced by the addition of 2% (w/v) galactose. The cultures were incubated for a further 96 hours at 20° C. […]
The test system of data set [15] is OmELO2. Nature of the data set: OmELO2 expressed in yeast, feeding of fatty acids. The format is cell-based, Oncorhynchus mykiss. The note with it: expression in yeast.
Data set [16] has as its system At3g06470. Nature of the data set: At3g06470 expressed in yeast, elongation of EPA. The following applies: feeding with 250 uM EPA.
Source text: as §1, §2, §3, §4

Where two headings read alike, the source gives them in different places.

Take `CCCCCCCCCCCCCCCC(=O)O` [16:0, palmitic acid]: in data set [1], the “Conversion of the starting materials by ELO(Ci) in %” value (“Conversion … by ELO(Ci) in %” for short) is 0%. Also, the “Conversion of the starting materials by ELO(XI) in %” value (from here on “Conversion … by ELO(XI) in %”) in data set [2] amounted to 3%.
For `CCCCCCCCCCCCCCCCCC(=O)O` [18:0, stearic acid] the same measures were 0% and 2%.
Turning to `CCCCCCC=CCCCCCCCCCC(=O)O` [18:1^Δ11], the “conversion of fatty acid fed” value in [3] is on record as “not converted”.
In the case of `CCCCC/C=C\C/C=C\CCCCCCCC(=O)O` [18:2^Δ9,12, linoleic acid], the “% Elongation” value in [3] is given as 0.99%.
In the case of `CCCCC/C=C\C/C=C\CC/C=C\CCCC(=O)O` [18:3^Δ5,9,12, pinolenic acid], the “Conversion … by ELO(Ci) in %” value in data set [1] is recorded as 38%. Further, the “Conversion … by ELO(XI) in %” value in data set [2] is listed as 13%.
Turning to `CCCCC/C=C\C/C=C\C/C=C\CCCCC(=O)O` [18:3^Δ6,9,12, γ-linolenic acid], the “elongation by Δ6-elongase PSE1 to DHGLA and DHSTA” value in data set [4] is “elongated almost quantitatively”. Moreover, the results for the “% conversion rate” value in data set [5] and in data set [6] (250 μM fatty acid fed) were 75% and 74.9%, respectively. In data set [7], the “Conversion rate (in %) OtELO2.1” value turned out to be 55.7%. The “Conversion rate (in %) OtElo2” value in data set [8] came out at 15.3%.
`CC/C=C\C/C=C\C/C=C\C/C=C\CCCCC(=O)O` [18:4^Δ6,9,12,15, stearidonic acid]: in data set [9], the “elongation by OmElo3 to 20:4 ω3” value worked out at 60%. Also, the “elongation by Δ6-elongase PSE1 to DHGLA and DHSTA” value in [4] is “elongated almost quantitatively”. For the same molecule, the “% Elongation” value in data set [3] was determined as 76.32%. The “% conversion rate” value is recorded as 85% in data set [5] (250 μM of each fatty acid fed) and 79.4% in data set [6] (250 μM fatty acid fed). In addition, in data set [7] (Table 16, yeast with pOTE2.1), the “Conversion rate (in %) OtELO2.1” value is reported as 70.4%. The “Conversion rate (in %) OtElo2” value in data set [8] (Table 16, yeast with pOTE2) is reported as 21.1%.
Regarding `CCCCC/C=C\C/C=C\C/C=C\CCCCCCC(=O)O` [20:3^Δ8,11,14, dihomo-γ-linolenic acid], the “conversion of fatty acid fed” value in data set [3] was “not converted”. Besides, the “Conversion … by ELO(Ci) in %” value in data set [1] worked out at 10%. For the same molecule, in data set [2], the “Conversion … by ELO(XI) in %” value worked out at 5%.
In the case of `CC/C=C\C/C=C\C/C=C\CCCCCCCCCC(=O)O` [20:3^Δ11,14,17], the “conversion of fatty acid fed” value in data set [3] is listed as “not converted”. In addition, the “Conversion … by ELO(Ci) in %” value in data set [1] worked out at 8%.
Consider `CCCCC/C=C\C/C=C\C/C=C\C/C=C\CCCC(=O)O` [20:4^Δ5,8,11,14, arachidonic acid], for which the “Conversion rate (in %) OtElo1.2” value in data set [10] was 38.0%. Further, the “% conversion rate” value turned out to be 1.7% in data set [11], 0% in [5] (250 μM of each fatty acid fed) and 20.3% in data set [6] (250 μM fatty acid fed). In addition, the “Conversion … by ELO(Ci) in %” value in data set [1] is reported as 10%. Further, the “Conversion rate (in %) OtElo1” value in [12] is 10.8 ± 0.6%. Also, in data set [2], the “Conversion … by ELO(XI) in %” value is given as 15%.
On to `CC/C=C\C/C=C\C/C=C\C/C=C\C/C=C\CCCC(=O)O` [20:5^Δ5,8,11,14,17, eicosapentaenoic acid], for which the “Conversion rate (in %) OtElo1.2” value in data set [10] was determined as 68.6%. Also, the “% conversion rate” value in [11] turned out to be 12.2%; in [5] (250 μM of each fatty acid fed), 0%; in data set [6] (50 μM fatty acid fed) it was 41%; in data set [6] (250 μM fatty acid fed) it was 8%. The “elongation of 20:5 ω3 to 22:5 ω3” value in [13] came to 65%. In addition, the “Conversion rate (in %) OtElo1” value in data set [12] is 46.8 ± 3.6%.
For the molecule `CCCCCC=CCC=CCC=CCC=CCCCCCC(=O)O` [22:4^Δ7,10,13,16, docosatetraenoic acid], the “conversion of fatty acid fed” value in data set [3] is recorded as “not converted”. The “Conversion … by ELO(Ci) in %” value in data set [1] was 0%. Further, the “Conversion … by ELO(XI) in %” value in data set [2] worked out at 0%.
Turning to eicosadienoic acid [20:2^Δ11,14], the “conversion of fatty acid fed” value in [3] is “not converted”.

B1: At3g06460: Arabidopsis thaliana elongase, SEQ ID NO: 135 (protein, listed as Arabidopsis thaliana)
chain: MASVYSTLTYWLVHHPYIANFTWTEGETLGSTVFFVFVVVSLYLSATFLLRYTVDSLPTLGPRILKPITAVHSLILFLLSLTMAVGCTLSLISSSDPKARLFDAVCFPLDVKPKGPLFFWAQVFYLSKILEFVDTLLIILNKSIQRLSFLHVYHHATVVILCYLWLRTRQSMFPVGLVLNSTVHVIMYGYYFLCAIGSRPKWKKLVTNFQMVQFAFGMGLGAAWMLPEHYFGSGCAGIWTVYFNGVFTASLLALFYNFHSKNYEKTTTSPLYKIESFIFIHGERWANKAITLFSKKND
modifications: CDS (1)..(897) delta5-elongase
As to B1, the “Conversion rate of EPA” value in data set [14] is on record as “At3g06460: 3.0%”.

B2: PtD5: Phaeodactylum tricornutum Δ5-desaturase, SEQ ID NO: 5 (protein, listed as Phaeodactylum tricornutum)
chain: MAPDADKLRQRQTTAVAKHNAATISTQERLCSLSSLKGEEVCIDGIIYDLQSFDHPGGETIKMFGGNDVTVQYKMIHPYHTEKHLEKMKRVGKVTDFVCEYKFDTEFEREIKREVFKIVRRGKDFGTLGWFFRAFCYIAIFFYLQYHWVTTGTSWLLAVAYGISQAMIGMNVQHDANHGATSKRPWVNDMLGLGADFIGGSKWLWQEQHWTHHAYTNHAEMDPDSFGAEPMLLFNDYPLDHPARTWLHRFQAFFYMPVLAGYWLSAVFNPQILDLQQRGALSVGIRLDNAFIHSRRKYAVFWRAVYIAVNVIAPFYTNSGLEWSWRVFGNIMLMGVAESLALAVLFSLSHNFESADRDPTAPLKKTGEPVDWFKTQVETSCTYGGFLSGCFTGGLNFQVEHHLFPRMSSAWYPYIAPKVREICAKHGVHYAYYPWIHQNFLSTVRYMHAAGTGANWRQMARENPLTGRA
modifications: CDS (1)..(1410) delta5-desaturase
For B2, the “PtD5 activity (desaturation of 20:4 ω3 to 20:5 ω3)” value in data set [9] was found to be 15%. The “share of the elongase product desaturated by Δ5-desaturase PtD5” value in data set [4] (to ARA and EPA (FIGS. 21 B and D)) is on record as 25-30%.

B3: OmELO2: Oncorhynchus mykiss elongase gene product, SEQ ID NO: 51 (protein)
chain: MASTWQSVQSMRQWILENGDKRTDPWLLVYSPMPVAIIFLLYLGVVWAGPKLMKRREPVDLKAVLIVYNFAMVCLSVYMFHEFLVTSLLSNYSYLCQPVDYSTSPLAMRMAKVCWWFFFSKVIELADTVFFILRKKNSQLTFLHVYHHGTMIFNWWAGVKYLAGGQSFFIGLLNTFVHIVMYSYYGLAALGPHTQKYLWWKRYLTSLQLLQFVLLTTHTGYNLFTECDFPDSMNAVVFAYCVSLIALFSNFYYQSYLNRKSKKT
modifications: Oncorhynchus mykiss; CDS (1)..(795) delta5-elongase
On to B3, for which, in [15], the elongase activity entry is “no elongase activity”.

B4: At3g06470: Arabidopsis thaliana elongase, SEQ ID NO: 137 (protein, listed as Arabidopsis thaliana)
chain: MASIYSSLTYWLVNHPYISNFTWIEGETLGSTVFFVSVVVSVYLSATFLLRSAIDSLPSLSPRILKPITAVHSLILCLLSLVMAVGCTLSITSSHASSDPMARFLHAICFPVDVKPNGPLFFWAQVFYLSKILEFGDTILIILGKSIQRLSFLHVYHHATVVVMCYLWLRTRQSMFPIALVTNSTVHVIMYGYYFLCAVGSRPKWKRLVTDCQIVQFVFSFGLSGWMLREHLFGSGCTGIWGWCFNAAFNASLLALFSNFHSKNYVKKPTREDGKKSD
modifications: CDS (1)..(837) delta5-elongase
With B4, the “Conversion rate of EPA” value in data set [16] is “At3g06470: 4.1%”.
